Measured values taken from the supplement of paper PMC13380429.

Experiments:
Details in all cases: 72 h
U2OS [1] = test: drug sensitivity score (DSS) for viability; higher = more toxic; extreme values may be limits of the assay
Vero E6 [2] = test: as above
Calu-3 [3] = test: as above
Caco-2 [4] = test: as above
HepG2 [5] = test: as above
U2OS [6] = test: relative viability EC50 (midpoint between 100% and the lowest measured viability); higher = less toxic
Vero E6 [7] = test: as above
Calu-3 [8] = test: as above
HepG2 [9] = test: as above
U2OS [10] = test: cell viability relative to DMSO; higher = less toxic
Vero E6 [11] = test: as above
Calu-3 [12] = test: as above
Caco-2 [13] = test: as above
HepG2 [14] = test: as above

| SMILES | drug sensitivity score (U2OS [1]) | drug sensitivity score (Vero E6 [2]) | drug sensitivity score (Calu-3 [3]) | drug sensitivity score (Caco-2 [4]) | drug sensitivity score (HepG2 [5]) | relative viability EC50 (U2OS [6]) [µM] | relative viability EC50 (Vero E6 [7]) [µM] | relative viability EC50 (Calu-3 [8]) [µM] | relative viability EC50 (HepG2 [9]) [µM] | cell viability (U2OS [10]; 1 nM) [%] | cell viability (U2OS [10]; 10 nM) [%] | cell viability (U2OS [10]; 100 nM) [%] | cell viability (U2OS [10]; 1000 nM) [%] | cell viability (U2OS [10]; 10000 nM) [%] | cell viability (Vero E6 [11]; 1 nM) [%] | cell viability (Vero E6 [11]; 10 nM) [%] | cell viability (Vero E6 [11]; 100 nM) [%] | cell viability (Vero E6 [11]; 1000 nM) [%] | cell viability (Vero E6 [11]; 10000 nM) [%] | cell viability (Calu-3 [12]; 1 nM) [%] | cell viability (Calu-3 [12]; 10 nM) [%] | cell viability (Calu-3 [12]; 100 nM) [%] | cell viability (Calu-3 [12]; 1000 nM) [%] | cell viability (Calu-3 [12]; 10000 nM) [%] | cell viability (Caco-2 [13]; 1 nM) [%] | cell viability (Caco-2 [13]; 10 nM) [%] | cell viability (Caco-2 [13]; 100 nM) [%] | cell viability (Caco-2 [13]; 1000 nM) [%] | cell viability (Caco-2 [13]; 10000 nM) [%] | cell viability (HepG2 [14]; 1 nM) [%] | cell viability (HepG2 [14]; 10 nM) [%] | cell viability (HepG2 [14]; 100 nM) [%] | cell viability (HepG2 [14]; 1000 nM) [%] | cell viability (HepG2 [14]; 10000 nM) [%] |
| --- | --- | --- | --- | --- | --- | --- | --- | --- | --- | --- | --- | --- | --- | --- | --- | --- | --- | --- | --- | --- | --- | --- | --- | --- | --- | --- | --- | --- | --- | --- | --- | --- | --- | --- |
| OC(CNCC(O)C1CCc2cc(F)ccc2O1)C1CCc2cc(F)ccc2O1 (stereo not drawn) [nebivolol] | 0 | 0 | 0 | 1.9 | 0 | > 10 | > 10 | > 10 | > 10 | 97.2 | 94.3 | 93.9 | 99.8 | 99.6 | 100 | 102 | 91.7 | 94.2 | 95.1 | 94.9 | 93.2 | 103 | 105 | 92.7 | 114 | 102 | 95.1 | 89.7 | 72.8 | 107 | 112 | 110 | 98.4 | 88.9 |
| NC(=O)N1c2ccccc2CC(=O)c2ccccc21 [oxcarbazepine] | 0 | – | 0 | – | 0.5 | > 10 | – | > 10 | > 10 | 101 | 100 | 101 | 96.7 | 99.1 | – | – | – | – | – | 96.1 | 93.6 | 82.6 | 105 | 95.1 | – | – | – | – | – | 90.8 | 92.3 | 115 | 90.7 | 87.5 |
| CCN1CCCC(OC(=O)C(c2ccccc2)c2ccccc2)C1 (stereo not drawn) [piperidolate] | 0 | 0 | 0 | 7 | 0 | > 10 | > 10 | > 10 | > 10 | 98.4 | 100 | 100 | 100 | 92.4 | 98.8 | 98.7 | 98 | 98 | 98.2 | 99.1 | 95.2 | 102 | 105 | 89.3 | 89 | 90.3 | 70.2 | 79.2 | 77.9 | 105 | 89.1 | 115 | 97.8 | 110 |
| O=C(O)C[C@H](O)C[C@H](O)/C=C/c1c(C2CC2)nc2ccccc2c1-c1ccc(F)cc1 [pitavastatin] | 9.4 | 8.5 | 4.4 | 2.4 | 2.9 | 1.28 | 1.62 | – | – | 98.7 | 97 | 100 | 68.3 | 9.6 | 93.9 | 105 | 88.7 | 78 | 6.4 | 103 | 98.1 | 99.2 | 84.7 | 56.4 | 103 | 93.6 | 97.3 | 89.4 | 70.3 | 88.5 | 97.1 | 82 | 95.7 | 57.1 |
| CC[C@H](CO)Nc1nc(NCc2ccccc2)c2ncn(C(C)C)c2n1 [roscovitine] | 0 | 0 | 0 | – | 0 | – | – | – | – | – | – | – | – | – | – | – | – | – | – | – | – | – | – | – | – | – | – | – | – | – | – | – | – | – |
| N=C(N)NS(=O)(=O)c1ccc(N)cc1 [sulfaguanidine] | 0 | 0 | 0 | – | 0 | – | – | – | – | – | – | – | – | – | – | – | – | – | – | – | – | – | – | – | – | – | – | – | – | – | – | – | – | – |
| Cc1ccc(C(C)C)c(O)c1 [thymol] | 0 | 0 | 0 | – | 0 | – | – | – | – | – | – | – | – | – | – | – | – | – | – | – | – | – | – | – | – | – | – | – | – | – | – | – | – | – |
| Cn1ncc(Cl)c1-c1cc(C(=O)N[C@H](CN)Cc2ccc(F)c(F)c2)oc1Cl [uprosertib] | 1.4 | 0.8 | 5.8 | 6.5 | 3.3 | > 10 | > 10 | 0.693 | – | 95.1 | 99.8 | 94.5 | 96.5 | 76.3 | 106 | 102 | 102 | 94.9 | 83.6 | 104 | 107 | 78.4 | 80.5 | 49.9 | 98.7 | 99.3 | 86.2 | 71.5 | 53.9 | 101 | 97.4 | 101 | 85.2 | 68.4 |
| Cc1cccc(OCC(O)CNC(C)(C)C)c1C (stereo not drawn) [xibenolol] | 0 | 0 | 0 | 0.7 | – | > 10 | > 10 | > 10 | – | 102 | 97.4 | 99.2 | 94.6 | 110 | 104 | 99.3 | 100 | 107 | 95.4 | 106 | 92.9 | 95.6 | 101 | 103 | 74.6 | 95.8 | 80.1 | 94.3 | 100 | – | – | – | – | – |
